In patent US12569508B2, “Antimicrobial compositions and methods of use” (priority 2020, dated 2026):

Test system: PAO1 biofilm
Assay: In vitro MBEC antibiofilm assay
Assay type: cell-based, P. aeruginosa
Conditions: 5-15 μg/mL colistin
Description: The pegs on lid of the MBEC Assay® were submerged into the bacterial suspension, with column 12 containing sterile LB broth as a negative control. The plate was incubated at 37° C. on a rotating gyrator for 24 h to form biofilm on the pegs. After 24 h, the peg lid was removed and transferred into another 96-well microtiter plate containing sterile water for 30 seconds before being transferred into a treatment plate. The peg lid in the treatment plate was incubated for 24 h at 37° C. on the rotating gyrator. In the first study, the effect of concentration variation of TOB in MO-LCNPs was determined. […] The respective controls included unloaded formulations MO-LCNP and […] at equivalent concentrations and 0.9% NaCl. […] In the second study, the difference in effect of MO- and […] compared to liposomes containing TOB was determined. […] The final concentration of MO and PHY was 0.25 mg/mL. Liposomes were prepared as described above. In the third study, TOB, AMI and GEN as unformulated solutions and loaded in MO-LCNPs were compared as treatments against PAO1 biofilms in the MBEC Assay®. The concentration of each antibiotic was 6 μg/mL. […] In all four different studies, the treatments were incubated with the PAO1 biofilm grown on the MBEC Assay® on a rotating plate at 37° C. After 24 h incubation, the peg lid was transferred to a fresh plate containing sterilized water to inhibit treatments. […]

For Colistin sulfate salt, the “anti-biofilm effect compared to saline control” value was “no anti-biofilm or antimicrobial effect”.
